pIC50: −log10 of the molar value. Values after ≈ are worked out from the molar mass of the structure shown.
Key:
P-selectin = target: T1, P-selectin (Homo sapiens, UniProt P16109); assay: Inhibition of P-Selectin by Biacore assay
T1 sequence (P16109 whole entry): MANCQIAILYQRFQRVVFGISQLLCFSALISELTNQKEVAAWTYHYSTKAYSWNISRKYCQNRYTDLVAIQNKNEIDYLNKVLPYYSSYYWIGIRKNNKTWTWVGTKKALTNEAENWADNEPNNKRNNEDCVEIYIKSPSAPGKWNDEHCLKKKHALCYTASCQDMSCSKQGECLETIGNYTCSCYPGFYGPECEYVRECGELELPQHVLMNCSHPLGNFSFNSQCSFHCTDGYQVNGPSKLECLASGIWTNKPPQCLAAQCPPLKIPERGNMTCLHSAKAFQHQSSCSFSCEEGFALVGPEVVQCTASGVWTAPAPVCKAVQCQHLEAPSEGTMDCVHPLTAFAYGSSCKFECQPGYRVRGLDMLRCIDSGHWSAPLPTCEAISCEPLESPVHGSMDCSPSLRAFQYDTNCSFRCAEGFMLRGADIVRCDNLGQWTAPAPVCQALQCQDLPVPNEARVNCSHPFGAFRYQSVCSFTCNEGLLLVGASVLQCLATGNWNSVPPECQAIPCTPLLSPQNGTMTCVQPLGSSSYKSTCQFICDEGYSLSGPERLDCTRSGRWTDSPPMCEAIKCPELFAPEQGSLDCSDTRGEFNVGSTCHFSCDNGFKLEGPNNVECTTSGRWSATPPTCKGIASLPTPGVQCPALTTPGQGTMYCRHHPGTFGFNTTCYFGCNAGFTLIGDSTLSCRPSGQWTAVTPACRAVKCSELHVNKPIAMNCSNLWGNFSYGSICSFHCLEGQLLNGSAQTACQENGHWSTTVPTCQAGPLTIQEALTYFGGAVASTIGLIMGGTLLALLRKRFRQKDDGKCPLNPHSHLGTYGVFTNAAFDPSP

Rattus norvegicus [1] = species on record: Rattus norvegicus; assay: AUC in Sprague-Dawley rat; type: ADME, organism-based, Plasma; settings: in vivo
Mus musculus [2] = species on record: Mus musculus; assay: AUC in C57 mouse; type: ADME, organism-based, Plasma; settings: in vivo
[3] = Bioavailability in C57 mouse; type: ADME, organism-based; settings: in vivo
[4] = Bioavailability in Sprague-Dawley rat; type: ADME, organism-based; settings: in vivo
[5] = Inhibition of leukocyte rolling in mouse at 50 mg/kg, po; type: functional
[6] = Stability in rat liver microsome; type: ADME; settings: liver microsomes
[7] = Oral bioavailability in Beagle dog at 15 mg/kg; type: ADME, organism-based, Canis lupus familiaris; settings: in vivo
Rattus norvegicus [8] = assay: Inhibition of neointimal hyperplasia in Sprague-Dawley rat carotid ballon injury model at 30 mg/kg, po; type: functional
Mus musculus [9] = assay: Inhibition of aortic lesion in apo E -/- mouse model at 100 mg/kg; type: functional; settings: Aorta
[10] = Solubility at pH 7.4; type: physicochemical; settings: buffer

SMILES | pIC50 (P-selectin) | AUC/dose (Rattus norvegicus [1]) [µg·h/mL] | AUC/dose (Mus musculus [2]) [µg·h/mL] | bioavailability [3] [%] | bioavailability [4] [%] | half-life [6] [min] | bioavailability [7] [%] | solubility [10] [µg/mL] | inhibition in vivo at 50 mg/kg [5] [%] | inhibition in vivo at 30 mg/kg (Rattus norvegicus [8]) [%] | inhibition in vivo at 100 mg/kg (Mus musculus [9]) [%]
O=C(O)c1c(O)c(Cc2c[nH]c3ccccc23)nc2c3c(ccc12)CCCC3 | 3.65 | 0.607 | 0.218 | 30 | 41 |  |  |  | 62 |  | 
O=C(O)c1c(O)c(Cc2c[nH]c3ccc(Cl)cc23)nc2c(C(F)(F)F)cccc12 | 3.60 |  |  |  |  |  |  |  | 23 |  | 
O=C(O)c1c(O)c(Cc2cccc(Cl)c2)nc2c3c(ccc12)CCCC3 | 3.86 |  |  |  |  | 6 |  |  |  |  | 
O=C(O)c1c(O)c(Cc2c[nH]c3ccc(Cl)cc23)nc2c3c(ccc12)CCCC3 | 3.76 | 0.096 |  |  | 5 |  |  | 20 (≈ 49.2 µM) |  |  | 

The next compounds have a higher pIC50 (P-selectin) than those just listed; values first:

pIC50 (P-selectin) | AUC/dose (Rattus norvegicus [1]) [µg·h/mL] | AUC/dose (Mus musculus [2]) [µg·h/mL] | bioavailability [3] [%] | bioavailability [4] [%] | half-life [6] [min] | bioavailability [7] [%] | solubility [10] [µg/mL] | SMILES | inhibition in vivo at 50 mg/kg [5] [%] | inhibition in vivo at 30 mg/kg (Rattus norvegicus [8]) [%] | inhibition in vivo at 100 mg/kg (Mus musculus [9]) [%]
3.91 |  |  |  |  | 6 |  |  | O=C(O)c1c(O)c(Cc2ccccc2Cl)nc2c3c(ccc12)CCCC3 |  |  | 
3.90 | 0.62 | 1.5 | 100 | 20 |  | 58 |  | O=C(O)c1c(O)c(Cc2ccc(Cl)cc2)nc2c3c(ccc12)CCCC3 [PSI-697] | 56 | 40 | 49
